Measured values reported in US6919377B2, “Cyclohexylamine derivative as subtype selective NMDA receptor antagonists” (Warner Lambert Company LLC, priority 2000, dated 2005).

Experiments:
D2 = D2 (Homo sapiens, UniProt P14416); test: D2 Raclopride (Table 4, no method given); format: binding
NR1a/NR2B = NR1a/NR2B (Rattus norvegicus, UniProt P35439+Q00960); test: Electrophysiological assay at NMDA receptor subunits expressed in Xenopus oocytes (two-electrode voltage clamp); format: cell-based; conditions: Table 4; cloned rat NMDA receptor subunits in Xenopus oocytes; read-out: NR1a/NR2B Oocyte IC50
Sequence of NR1a/NR2B (Q00960 27-1482, other chains not shown): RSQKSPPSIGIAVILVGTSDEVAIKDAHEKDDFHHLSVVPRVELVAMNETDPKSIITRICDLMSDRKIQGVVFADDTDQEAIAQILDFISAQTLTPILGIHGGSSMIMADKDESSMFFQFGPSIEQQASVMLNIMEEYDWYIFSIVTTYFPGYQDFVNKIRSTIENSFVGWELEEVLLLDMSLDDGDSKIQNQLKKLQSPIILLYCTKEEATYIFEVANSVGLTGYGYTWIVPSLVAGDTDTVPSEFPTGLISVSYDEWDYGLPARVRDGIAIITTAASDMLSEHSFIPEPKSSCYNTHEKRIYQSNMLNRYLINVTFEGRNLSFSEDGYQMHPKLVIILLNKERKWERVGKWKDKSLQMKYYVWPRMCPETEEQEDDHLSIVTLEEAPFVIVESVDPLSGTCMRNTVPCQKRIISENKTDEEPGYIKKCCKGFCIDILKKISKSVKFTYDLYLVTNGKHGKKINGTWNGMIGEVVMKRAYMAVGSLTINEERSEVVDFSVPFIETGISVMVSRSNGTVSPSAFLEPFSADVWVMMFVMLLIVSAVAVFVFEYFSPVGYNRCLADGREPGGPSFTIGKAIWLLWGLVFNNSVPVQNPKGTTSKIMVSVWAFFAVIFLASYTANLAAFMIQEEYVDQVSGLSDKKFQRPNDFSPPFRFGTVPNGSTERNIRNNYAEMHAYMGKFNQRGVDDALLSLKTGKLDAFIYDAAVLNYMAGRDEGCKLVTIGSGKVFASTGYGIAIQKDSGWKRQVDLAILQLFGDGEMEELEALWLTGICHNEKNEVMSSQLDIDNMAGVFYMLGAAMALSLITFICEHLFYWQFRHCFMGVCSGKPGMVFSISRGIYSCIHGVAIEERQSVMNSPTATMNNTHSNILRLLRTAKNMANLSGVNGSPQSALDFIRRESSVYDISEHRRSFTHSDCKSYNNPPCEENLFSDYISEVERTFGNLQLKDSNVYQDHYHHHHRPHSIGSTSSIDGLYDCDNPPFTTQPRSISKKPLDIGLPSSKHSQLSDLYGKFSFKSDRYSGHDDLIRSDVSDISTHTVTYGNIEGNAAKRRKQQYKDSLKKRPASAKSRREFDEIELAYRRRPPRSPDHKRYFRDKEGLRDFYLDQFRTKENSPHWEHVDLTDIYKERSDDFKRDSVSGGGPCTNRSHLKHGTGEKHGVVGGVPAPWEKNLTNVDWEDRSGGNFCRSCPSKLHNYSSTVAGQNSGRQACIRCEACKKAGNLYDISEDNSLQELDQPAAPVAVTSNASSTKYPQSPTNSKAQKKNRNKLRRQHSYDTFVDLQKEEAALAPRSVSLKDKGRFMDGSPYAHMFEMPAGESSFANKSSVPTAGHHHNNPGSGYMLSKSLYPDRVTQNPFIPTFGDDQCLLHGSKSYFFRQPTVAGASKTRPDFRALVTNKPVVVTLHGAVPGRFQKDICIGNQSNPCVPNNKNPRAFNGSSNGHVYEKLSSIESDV
Description: The clones were transformed into appropriate host bacteria and plasmid preparations were made with conventional DNA purification techniques. A sample of each clone was linearized by restriction enzyme digestion […] was synthesized with T3 RNA polymerase. The cRNA was diluted to 400 ng/μL and stored in 1 μL aliquots at −80° C. until injection.
The Xenopus Oocyte Expression System. […] Follicle-enclosed oocytes were micro-injected with 1:1 mixtures of NR1A:NR2A, 2B or 2C.; injecting 1 to 10 ng of RNA encoding each receptor subunit. NR1A encoding RNA was injected alone at ˜20 ng. Oocytes were stored in Barth's medium containing (in mM): NaCl, 88; KCl, 1; CaCl2, 0.41; Ca (NO3)2, 0.33; MgSO4, 0.82; NaHCO3, 2.4; HEPES 5, pH 7.4, with 0.11 mg/ml gentamicin sulphate. While oocytes were still surrounded by enveloping ovarian tissues, the Barth's medium was supplemented with 0.1% bovine serum.
Drugs were applied by bath perfusion. Using oocytes expressing different subunit combinations of NMDA receptor, NMDA currents were activated by co-application of glutamate (100 μM) and glycine (1-100 μM). Inhibitory potency of the novel antagonists was assessed on responses elicited by fixed concentrations of glutamate and glycine, by measuring reductions in current induced by progressively increasing concentrations of antagonist.
Concentration-inhibition curves were fit with Equation 1. […] For incomplete curves analysis by fitting was unreliable and IC50 values were calculated by simple regression over linear portions of the curves (Origin: Microcal Software).

Alpha 1 = Alpha 1 (Table 4, no method given); format: binding; conditions: read-out: Alpha 1 cocn IC50

Sequence of D2 (P14416 whole entry): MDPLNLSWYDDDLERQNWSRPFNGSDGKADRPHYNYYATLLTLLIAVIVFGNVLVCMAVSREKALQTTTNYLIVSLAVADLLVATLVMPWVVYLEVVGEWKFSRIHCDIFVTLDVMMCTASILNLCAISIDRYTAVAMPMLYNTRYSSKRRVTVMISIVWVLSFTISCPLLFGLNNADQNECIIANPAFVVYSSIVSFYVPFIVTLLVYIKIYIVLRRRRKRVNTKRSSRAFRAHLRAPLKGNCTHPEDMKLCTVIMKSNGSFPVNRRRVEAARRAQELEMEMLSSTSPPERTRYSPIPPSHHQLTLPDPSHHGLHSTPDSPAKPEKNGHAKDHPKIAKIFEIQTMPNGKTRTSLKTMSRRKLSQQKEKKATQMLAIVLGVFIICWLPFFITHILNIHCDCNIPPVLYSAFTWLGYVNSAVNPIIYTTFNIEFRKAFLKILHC

SMILES	IC50 (D2)	IC50 (NR1a/NR2B)	IC50 (Alpha 1)
COc1ccc(CCCN[C@H]2CC[C@H](c3ccc(O)cc3)CC2)cc1 [Example 28, Trans-4-{4-[3-(4-methoxyphenyl)propylamino]cyclohexyl}phenol]	2970 nM	70 nM	2300 nM
Oc1ccc([C@H]2CC[C@@H](NCCc3ccc(F)cc3)CC2)cc1 [Example 5a, cis-4-{4-[2-(4-Fluorophenyl)ethylamino]cyclohexyl}phenol]	2700 nM	1200 nM	10000 nM
COc1ccc(CCN[C@H]2CC[C@@H](c3ccc(O)cc3)CC2)cc1 [Example 8a, cis-4-{4-[2-(4-Methoxyphenyl)ethylamino]cyclohexyl}phenol]	5000 nM	2400 nM	9200 nM
COc1ccc(CCN[C@H]2CC[C@H](c3ccc(O)cc3)CC2)cc1 [Example 8b, trans-4-{4-[2-(4-Methoxyphenyl)ethylamino]cyclohexyl}phenol]	1900 nM	240 nM	5100 nM
